Columns and labels:
HDF cells [1] = experiment: Cell adherence test with HDF cells; assay type: cell-based, human; conditions: for CELL ADHESION [%]: peptide/BSA conjugates bound to polystyrene, approx. 35 nmol peptide per well, 1 hour at 37° C., fibronectin positive control, BSA negative control; for adherence promoting effect for HDF cells (in words): BSA conjugates
Method: (§1) 50 μl each of the peptide/BSA conjugates or the peptides were placed, in different concentrations, in the wells of a 96-well flat-bottomed microtiter plate (DYNATECH). After drying for 2 hours at 37° C., unbound peptide/BSA conjugate or peptide is removed by washing with phosphate-buffered saline solution (PBS) several times. In order to prevent the non-specific adhesion of the cells to polystyrene, all the wells were subsequently saturated for 30 min. at 37° C. with heat-denatured BSA (2 mg/ml). Following that, it was once again washed with PBS.
As a positive control for the adhesion capacity, bovine fibronectin (Paesel & Lorey, 1 mg/ml) was used, and heat-denatured BSA (2 mg/ml) as a negative control; this is not capable of influencing intercellular adhesion.
(§2) The cell adherence test was performed with AKR-2B mouse fibroblasts (Shipley et al., Cancer Res. 44 (1984) 710-716) and human dermal fibroblasts (HDF, removed from the lower arm, 18th passage). AKR-2B cells were cultivated in McCoy's medium (10% calf serum), and HDF cells in Dulbecco's modified eagle medium (DMEM) in the presence of 10% foetal calf serum (FCS) and 1% streptomycin/penicillin. For the adherence test, the cells were washed twice with protein-free HYBRI-MAX™ (medium for culture of hybridoma cell types containing 1 mM Mn^2+ and 0.02% heat-denatured BSA) medium (SIGMA) and then taken up in Hybri-Max (1 mM Mn^2+, 0.02% heat-denatured BSA). In this way, it was largely ensured that neither protein components from the culture medium, nor serum components, such as fibronectin for example, could influence the adherence test. In each well of the microtiter plate previously filled with test substance (peptide concentration per well: approx. 35 nmol), 200 μl of the cell suspension taken up in HYBRI-MAX™ (medium for culture of hybridoma cell types containing 1 mM Mn^2+ and 0.02% heat-denatured BSA) (1 mM Mn^2+, 0.02% heat-denatured BSA) (1.5×10^5 cells/well) were pipetted and incubated for 1 hour in an incubator at 37° C., 5% CO2 atmosphere. After that, the supernatant was decanted off, and non-adhered cells were removed by washing with PBS. The adhered cells were fixed for 0.5 min with methanol and stained with the MERCK HEMACOLOR™ (colution for fast staining in microscopy) reagent kit in order to quantify the number of cells.

HDF cells [2] = experiment: Chemotaxis test using HDF cells (modified Boyden chambers); assay type: cell-based, human; conditions: 4 hours at 37° C., medium control deducted, Collagen 0.3 nmol/ml, Fibronectin 0.6 nmol/ml, peptides 1 μmol/ml
Method: In addition to wound contraction, the epithelialisation of the wound as a result of the migration of cells from the edges of wounds plays a significant role in wound repair. Some selected peptides were investigated in chemotaxis tests in order to study their ability to simulate the migration of HDF cells. The test was conducted in accordance with Scharffetter-Kochanek et al. (J. Invest. Dermatol. 98 (1992) 3-11) in modified Boyden chambers. In the lower cavity of the Boyden chamber, 210 μl DMEM (control) or the potential chemoattractant taken up in the same volume of DMEM were placed. […] 2×10^5 cells were pipetted into the upper Boyden chamber (volume 810 μl). The incubation time was 4 hours at 37° C. The results for the peptides investigated are summed up in Tab. 5, with the figures for the medium control already having been deducted from these readings.

AKR-2B cells [3] = experiment: Cell adherence test, dilution series on AKR-2B cells (EC50); assay type: cell-based, mouse; conditions: for EC50 (semi-maximum cell adherence): peptide/BSA conjugates diluted in PBS, read off from curve
Method: as §1, §2
For some selected conjugates, dilution series were included in order to determine binding constants for AKR-2B cells. For this purpose, the peptide/BSA conjugates were diluted in PBS, and 50 μl each of these dilutions were placed in the wells of a microtiter plate. Incubation and all the other steps were performed according to the method described above. After the readings had been plotted graphically, the difference between the figure for the maximum cell adherence and the zero value could be formed, and the EC50 values shown in Tab. 3 as a measure of the semi-maximum cell adherence could be read off from the line of the curve.
In order to establish binding constants for the peptides of the invention, dose effectiveness curves on AKR-2B cells were recorded for some selected conjugates. The EC50 values shown in Tab. 3 as a measure of semi-maximum cell adherence were read off from the curve concerned (plotted: cell adherence versus peptide concentration). Low EC50 values mean that only small quantities of the substances need to be used in order to achieve a semi-maximum effect, in other words that the substance is very effective.

AKR-2B cells [4] = experiment: Competitive inhibition test (adherence of AKR-2B cells to BSA/AP#2 conjugate); assay type: cell-based, mouse; conditions: for Inhibition (maximum measured reduction in cell adherence): soluble peptide 1 μmol/well, AKR-2B cells, plates coated with BSA/AP#2 conjugate 10 nmol/well; for inhibitory effect on the attachment of AKR-2B cells (in words): soluble peptides, competition with BSA/AP#2 conjugate
Method: Via the specific saturation of surface receptors (shown schematically in FIG. 3E), it is possible, in the case of soluble peptides, to measure an inhibitory effect on the adhesion of test cells (AKR-2B). In the experiment described here, a selected peptide/BSA conjugate corresponding to a peptide concentration of 10 nmol/well was placed in the microtiter plates and incubated for 2 hours at 37° C. Unsaturated binding sites in the culture vessel were subsequently saturated for 30 minutes with heat-denatured BSA (2 mg/ml). The peptides were dissolved in HYBRI-MAX™ (medium for culture of hybridoma cell types containing 1 mM Mn^2+ and 0.02% heat-denatured BSA) Medium (0.02 % BSA, 1 mM Mn^2+), and the pH was adjusted to a level of 7.2 to 7.4. Following that, the peptide solutions were treated with Reductacryl®. […] From these stock solutions, dilution series were prepared in HYBRI-MAX™ (medium for culture of hybridoma cell types containing 1 mM Mn^2+ and 0.02% heat-denatured BSA) medium (1 mM Mn^2+, 0.02% heat-denatured BSA), and added to the AKR-2B cells taken up in the same medium. After that, the specimens were incubated for 10 minutes at 37° C., while being gently shaken. The cells pre-treated in this way (1.5×10^5 /200 μl) were subsequently transferred to the conjugate-coated microtiter plates. The further treatment of the test plates was performed by analogy with 4.1.
The inhibitory effect of the peptides is shown in Tab. 4 as the difference between the 100% figure (control, with no peptide in the medium), and the maximum measured reduction in cell adherence at a peptide concentration of 1 μmol/well. A figure of 100% would mean complete inhibition, i.e. the maximum effect.
For the peptides of the invention available in soluble form, i.e. in a form not bound to carrier molecules, it is possible to detect adhesion inhibiting properties which come about as a result of the specific blockade of epitopes on surface receptors of the test cells (cf. FIG. 3E).
The AP#2 peptide was selected as an internal standard. Compared to most of the other peptides of the invention (cf. Tab. 2), the adhesion promoting properties of BSA/AP#2 conjugates lie within a region of semi-maximum effectiveness. Experience has shown that, in order to detect inhibitory effects, it is favourable to measure in a range of less than optimum effect, since otherwise weak inhibitory effects might not be detected.

Substance | CELL ADHESION [%] (HDF cells [1]) | adherence promoting effect for HDF cells (in words) (HDF cells [1]) | further results
A-E-L-L-D-G-(C) (AELLDG; C-terminal Cys) [AP#24] | 32.7 | – | –
Collagen: collagen I, positive control in chemotaxis test | – | – | Avge. no. of cells per field of vision (HDF cells [2]): 45.7; Chemotactic migration [%] (HDF cells [2]): 100.0%
E-L-L-D-G-(C) [AP#25] | 47.7 | – | EC50 / binding constant on AKR-2B cells (in words) (AKR-2B cells [3]; peptide/BSA conjugates): better binding constant was obtained compared to the control; EC50 (semi-maximum cell adherence) (AKR-2B cells [3]): 42.0 pmol/well; Inhibition (maximum measured reduction in cell adherence) (AKR-2B cells [4]): 18.1%; inhibitory effect on the attachment of AKR-2B cells (in words) (AKR-2B cells [4]): slightly less efficiency
FN: bovine fibronectin (Paesel & Lorey, 1 mg/ml), positive control for the adhesion capacity | 100.0 | – | –
Fibronectin | – | – | Avge. no. of cells per field of vision (HDF cells [2]): 43.9; Chemotactic migration [%] (HDF cells [2]): 96.0%
G-G-G-A-G-G-G-S-S-G-S-G-(C) (GGGAGGGSSGSG; C-terminal Cys) [AP#11] | 30.5 | significant adhesion modifying effect | –
G-G-G-S-G-G-G-S-S-G-S-G-(C) (GGGSGGGSSGSG; C-terminal Cys) [AP#10] | 27.5 | significant adhesion modifying effect | –
G-I-V-R-T-P-L (GIVRTPL) [AP#9] | 93.0 | good effectiveness | EC50 (semi-maximum cell adherence) (AKR-2B cells [3]): 50.7 pmol/well
G-I-V-R-T-P-L-A-E-L (GIVRTPLAEL) [AP#8] | 78.2 | good effectiveness | EC50 (semi-maximum cell adherence) (AKR-2B cells [3]): 41.7 pmol/well
G-R-G-D-S-(C) [IVA1b, reference compound] | 93.8 | similarly good to those of fibronectin | –
G-T-P-G-P-Q-G-I-A-G-Q-R-G-V-V-(C) (GTPGPQGIAGQRGVV; C-terminal Cys) [P-15, adhesion promoting fragment of the α-1(I) chain of collagen, reference compound] | 62.1 | slightly less effective | –
G-V-V-S-T-P-L-V-N-L-I-N-G-(C) [AP#5] | 53.2 | – | –
I-V-R-T-P--- -A-E-L-L-D-G-(C) (AELLDG; N-terminal IVRTP; C-terminal Cys) [AP#14] | 27.0 | – | –
I-V-R-T-P-L-A-E-L-L-D-G-(C) [AP#13] | 37.3 | – | –
L-A-E-L-L-D-G-(C) (LAELLDG; C-terminal Cys) [AP#21] | 43.5 | – | –
L-A-E-L-L-D-G-E-(C) [AP#20] | 54.1 | increased adherence promoting effect | –
L-A-E-L-L-D-G-E-G-(C) [AP#19] | 51.9 | increased adherence promoting effect | –
L-A-E-L-L-D-G-E-G-Q-(C) [AP#18] | 11.9 | only have a basal adhesion promoting effect | –
L-A-E-L-L-E-G-(C) (LAELLEG; C-terminal Cys) [AP#22] | 18.8 | somewhat reduced adherence efficacy | –
L-A-E-L-L-L-G-(C) (LAELLLG; C-terminal Cys) [AP#23] | 26.4 | somewhat reduced adherence efficacy | –
L-D-G-(C) [AP#27] | 23.3 | significant adhesion promoting effect | –
L-L-D-G-(C) [AP#26] | 31.3 | – | –
Q-I-D-F-N-R-L-F-T-H-P-V-T-D-L-F-D-P-(C) [AP#1] | 72.5 | Particularly good effectiveness | EC50 (semi-maximum cell adherence) (AKR-2B cells [3]): 32.9 pmol/well
R-T-P--- -A-E-L-L-D-G-(C) [AP#16] | 21.4 | – | –
R-T-P-L-A-E-L-L-D-G-(C) [AP#15] | 28.5 | – | –
S-V-T-L-G-(C) [SVTLG, reference compound] | 72.1 | slightly less effective | EC50 (semi-maximum cell adherence) (AKR-2B cells [3]): 64.5 pmol/well
T-V-L-R-N-I-Q-E-L-L-D-G-E-(C) [AP#12] | 74.2 | – | EC50 (semi-maximum cell adherence) (AKR-2B cells [3]): 29.0 pmol/well
V-T-G-R-G-D-S-P-A-(C) [IVA1, reference compound] | 93.9 | similarly good to those of fibronectin | EC50 (semi-maximum cell adherence) (AKR-2B cells [3]): 0.73 pmol/well; Inhibition (maximum measured reduction in cell adherence) (AKR-2B cells [4]): 2.6%; inhibitory effect on the attachment of AKR-2B cells (in words) (AKR-2B cells [4]): virtually no effect

From patent US5994311A, “Cell adhesion peptides for modifying the adhesion capacity of eukaryotic cells between each other” (Beiersdorf AG, priority 1994, dated 1999)
